This is an account of results in US20120142767A1, “PINE PCO ESTER COSMETIC COMPOSITION” (ACTION PIN, priority 2009, published 2012).

Data set [1] concerns normal human fibroblasts. Description: Cytotoxic activity on a monolayer of human fibroblasts (MTT, 24 hours). To be noted: positive control (SDS), concentration not given. On the procedure: After applying the product on the cells for 24 hours, cell viability is evaluated by measuring the activity of the mitochondrial succinate dehydrogenase of living cells. This enzyme transforms MTT (3(4,5-diméthylthiazol-2-yl)-2,5-diphenyltetrazolium bromide) into blue formazan crystals. After dissolution of these crystals, a spectrophotometric read-out is performed. The measured absorbancies are proportional to the number of living cells.
The cells used are fibroblast from human skin tissue (child foreskin) in passage 1.
Six dilutions of each sample, prepared in an culture medium with 0.005% of between 60 and 0.05% of cotton oil, are tested in an amount of 5 test wells per concentration. The reference elements are tested on 5 wells.
The absorbance is measured at 540 nm. The results are expressed as a mortality percentage compared with the negative control.

Data set [2] relates to reconstructed human epidermis. Briefly: Cytotoxicity (MTT) on reconstructed human epidermis irradiated by UVBs. To be noted: for AU (MTT): 3 epidermises and mean ± SD. The data set is classed as cell-based. The procedure:
A human epidermis is reconstructed in vitro in culture inserts. A paper filter disc on which the substance to be tested (preventive treatment) is deposited on the “stratum corneum”. After 24 hours, it is irradiated by UVBs and then the substance to be tested (curative treatment) is again applied. a study of cytoxicity (MTT), The keratinocytes sites are sown at a density of 100×10^3 cells/cm^2 in inserts, the bottom of which consists of a polycarbonate membrane (porosity 0.4 μm-1 cm^2). […] 3 series of substance to be tested (5, 50 and 500 μg/mL) each consisting of 3 epidermises (to be irradiated). Next, the paper filter disks are carefully withdrawn and all the series are irradiated with UVBs (0.6 J/cm^2) (Spectroline model X-15N/F, λ=312 nm) except for the series corresponding to the absolute negative control and to the solvent control. The curative treatment is then applied as described above for the preventive treatment over a period of 24 hours, except for the positive control series 2 (indomethacin). The MTT test is carried out according to the conditions described in the publications: […]. and Berg K. Re-examination and further development of a precise and rapid dye method for measuring cell growth/cell kill. J. Immunol. Methods. 1989, 119, 203; and Mosmann T., Rapid colorimetric assay for cellular growth and survival: Application to proliferation and cytotoxic assays, J. Immunol. Methods. 1983, 65, 55-63. At the end of the selected incubation time, the Whatman paper disk is carefully picked up, the <<stratum corneum>> is rinsed and the porous membrane bearing the epidermal layer is detached from the insert with a bistoury. The culture medium are used for assaying IL-1α and MDA. […] For each layer, 200 μL of the obtained solution are pipeted into an 96 well plate for carrying out spectrometry with a plate reader (FL600-BIO-TEK) at λ=540 nm.

The test system of a further data set is IL-1α. Briefly: Assay of IL-1α in the culture medium of UVB-irradiated reconstructed human epidermis. It is filed as cell-based. The note with it: indomethacin 3 hours before irradiation, not statistically significant. On the procedure:
A human epidermis is reconstructed in vitro in culture inserts. A paper filter disc on which the substance to be tested (preventive treatment) is deposited on the “stratum corneum”. After 24 hours, it is irradiated by UVBs and then the substance to be tested (curative treatment) is again applied. an assay of IL-1α, a pro-inflammatory mediator in the culture medium, […] 3 series of substance to be tested (5, 50 and 500 μg/mL) each consisting of 3 epidermises (to be irradiated). Next, the paper filter disks are carefully withdrawn and all the series are irradiated with UVBs (0.6 J/cm^2) (Spectroline model X-15N/F, λ=312 nm) except for the series corresponding to the absolute negative control and to the solvent control. The curative treatment is then applied as described above for the preventive treatment over a period of 24 hours, except for the positive control series 2 (indomethacin). The assay of IL-1α is carried out in the sampled culture media (n=3), diluted to 1/10th and to 1/20th according to the procedure described in the assay kit.

The subject of a further data set is MDA (malonaldehyde). Briefly: Assay of MDA (lipid peroxidation) in the culture medium of UVB-irradiated reconstructed human epidermis. It is filed as cell-based. The note with it: for MDA / MDA (μM/AU MTT): vitamin E 200 μg/mL + UVB, 3 epidermises and mean ± SD. On the procedure:
A human epidermis is reconstructed in vitro in culture inserts. A paper filter disc on which the substance to be tested (preventive treatment) is deposited on the “stratum corneum”. After 24 hours, it is irradiated by UVBs and then the substance to be tested (curative treatment) is again applied. an assay of MDA (malonaldehyde) (a terminal product formed during the lipid peroxidation process induced by the formation of radical species, or species activated by oxygen). […] 3 series of substance to be tested (5, 50 and 500 μg/mL) each consisting of 3 epidermises (to be irradiated). Next, the paper filter disks are carefully withdrawn and all the series are irradiated with UVBs (0.6 J/cm^2) (Spectroline model X-15N/F, λ=312 nm) except for the series corresponding to the absolute negative control and to the solvent control. The curative treatment is then applied as described above for the preventive treatment over a period of 24 hours, except for the positive control series 2 (indomethacin). […] dilutions are carried out between 0.1 and 10 μM (0.1-1-2.5-5 and 10 μM). 500 μL of culture medium (or 500 μL of a standard range) are energetically mixed in a vortex mixer, with 1 mL of a <<TCA, TBA, HCl>> solution ([…] of TCA trichloroacetic acid, 0.375% (w/v) of TBA (2-thiobarbituric acid), 0.25 M of HCl) (heated for 15 minutes at 100° C. in order to dissolve the TBA, and then left to cool). The mixture is incubated for 15 minutes at 100° C. and the OD is measured at λ=535 nm against a blank formed with the <<TCA, TBA, HCl>> solution.

The subject of data set [3] is normal human fibroblasts. Briefly: Synthesis of collagen by human fibroblasts (Sircol assay). It is filed as cell-based. The arrangement: stimulation of collagen at the cell matrix: dose or concentration left out as unconfirmed. The procedure: The goal of this study is to evaluate the effect of the test element on the synthesis of collagen after 24-hour contact with a monolayer of normal human fibroblasts.
The cells used are fibroblasts from a human child skin tissue (child) on passage 2.
The cells are sown with 50,000 cells/cm^2. After 24 hours of culture, 37° C., 5% CO2, they are incubated with the product under investigation and the reference element for 24 hours in a 1% FCS medium.
The collagen is assayed in the extra cellular matrix and in the culture medium by means of the assay box Sircol, Biocolor Ltd, Ireland, according to the procedure described in the box.
The assay is carried out with the red colouring agent Sirius (Direct Red 80) which has specific affinity for the trip helix structure (Gly-X-Y)n of native collagen.
The absorbance of the dye-collagen complex is read out with the spectrophotometer at 540 nm.
A standard curve is produced between 0 and 50 μg/mL of collagen of type I.
The collagen concentration is expressed in pg of collagen /ml/U MTT in the extra cellular matrix and in the culture medium.

Where “and” joins values, the source holds several entries; their conditions need not be identical. Identical values can stand only once.

For the compound `CCCCCCCCCCCCOS(=O)(=O)[O-].[Na+]` [Positive control, SDS], the “UA MTT” value in the data set with normal human fibroblasts [1] was 0.065 UA.

Regarding `COc1ccc2c(c1)c(CC(=O)O)c(C)n2C(=O)c1ccc(Cl)cc1` [Indomethacin, indomethacin], the “AU (MTT)” value in data set [2] (indomethacin 10 μg/mL, 3 hours before UVB) was 0.214 AU and 0.288 AU and 0.232 AU. Further, the “protective effect as regards cytotoxicity” value in data set [2] (indomethacin for 3 hours before irradiation) is “no protective effect”. In addition, in the data set on IL-1α, the “inhibition of synthesis and secretion of IL-1α in the culture medium” value is reported as −20%.

As to vitamin E, in data set [2], the cytotoxic effect is given as 13%. Moreover, the “AU (MTT)” value in data set [2] (vitamin E 200 μg/mL + UVB) was 0.246 AU and 0.369 AU and 0.356 AU. The “MDA” value was 0.422 µM and 0.423 µM and 0.484 µM in the data set on MDA (malonaldehyde); 0.443 ± 0.035 µM with MDA (malonaldehyde) (mean ± SD of three epidermises). The “MDA (μM/AU MTT)” value in the data set with MDA (malonaldehyde) was 1.715 μM/AU MTT and 1.147 μM/AU MTT and 1.359 μM/AU MTT; in the data set on MDA (malonaldehyde) (mean ± SD of three epidermises) it was 1.407 ± 0.287 μM/AU MTT. Besides, the “increase in the MDA level” value in the data set on MDA (malonaldehyde) (vitamin E before and after irradiation, with respect to the non-irradiated absolute negative control, P<0.05) amounted to 58%.

In the case of “TGF β1: positive control of the collagen synthesis test”, the “stimulation of collagen at the cell matrix” value in the data set on normal human fibroblasts [3] (TGF β1) was 88%. In addition, in the data set with normal human fibroblasts [3] (TGF β1 (100 ng/ml)), the “Assay of collagen, Cell matrix” value came out at 9.74 μg/wells; the “Assay of collagen, Culture medium” value was found to be 11.36 μg/wells; the “Assay of collagen, TOTAL” value stood at 21.09 μg/wells; the “Collagen ratio, Cell matrix” value worked out at 10.42 μg/wells/U MTT. Also, in the data set on normal human fibroblasts [3] (TGF β1 (100 ng/ml)), the “Collagen ratio, Culture medium” value is reported as 12.15 μg/wells/U MTT; the “Collagen ratio, TOTAL” value amounted to 22.57 μg/wells/U MTT; the “Stimulation of collagen excreted into the culture medium” value is listed as 12%; the “Stimulation of collagen produced in the cell matrix” value was 88%. The “Stimulation of the synthesis of total collagen” value with normal human fibroblasts [3] (TGF β1 (100 ng/ml)) was found to be 38%. In the data set with normal human fibroblasts [3] (TGF β1 at 10 μg/mL), the “stimulation of total synthesis of collagen” value was determined as 38%.
